The values below come from ChEMBL document CHEMBL1165917, “Synthesis and NMDA receptor affinity of fluorinated dioxadrol analogues” (Bioorg Med Chem, 2010).

Sigma non-opioid intracellular receptor 1, sequence (Q60492 whole entry): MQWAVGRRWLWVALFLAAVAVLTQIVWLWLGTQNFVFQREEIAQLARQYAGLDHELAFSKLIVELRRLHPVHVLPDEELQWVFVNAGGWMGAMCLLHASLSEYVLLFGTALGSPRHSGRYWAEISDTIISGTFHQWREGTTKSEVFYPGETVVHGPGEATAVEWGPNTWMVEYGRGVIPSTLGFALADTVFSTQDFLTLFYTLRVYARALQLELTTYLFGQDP

Target in the first assay: not listed separately
The assay is described as follows: Displacement of [3H]-(+)-MK801 from PCP binding site of NMDA receptor from pig brain cortex after 150 mins by scintillation counting. On the set-up: species or system Sus scrofa.
Conditions: not given
For orientation: Loss of bound radioactivity is the signal in a displacement assay; it reports binding, not function.
As a reminder, the Ki is a dissociation constant, usually derived from enzyme kinetics or from competition with a known ligand. Regarding `FC1(F)CCNC(C2COC(c3ccccc3)(c3ccccc3)O2)C1` (racemic), affinity was put at a Ki of 81 nM.
In turn, `OC1CCNC(C2COC(c3ccccc3)(c3ccccc3)O2)C1` (racemic) gave a Ki of 44 nM.
`O=C1CCNC(C2COC(c3ccccc3)(c3ccccc3)O2)C1` (racemic) had a Ki of 470 nM.
Take `FC1CCNC(C2COC(c3ccccc3)(c3ccccc3)O2)C1` (racemic; form 2) [listing 1 of 2 here]: the affinity corresponds to a Ki of 27 nM.
`CC12CC3CC(C)(C1)CC(N)(C3)C2` [MEMANTINE]: the affinity, expressed as Ki, was 1200 nM.

Target in another assay: not listed separately
Put plainly: Displacement of [3H]ditolylguanidine from sigma2 opioid receptor from rat brain cortex after 150 mins by scintillation counting.
Conditions: not given
As to `FC1(F)CCNC(C2COC(c3ccccc3)(c3ccccc3)O2)C1` (racemic), the Ki came out at 137 nM.

For the next assay, the species on record is Rattus norvegicus. Particulars: at 1 µM.
Broadly, the inhibition is the change of the read-out against control, counted positive when it falls. Low readings indicate a response near the control, high ones a response far below the control. On to `FC1(F)CCNC(C2COC(c3ccccc3)(c3ccccc3)O2)C1` (racemic), for which the inhibition was determined as 17%.
On the same count and under the same terms, to `OC1CCNC(C2COC(c3ccccc3)(c3ccccc3)O2)C1` (racemic) belongs 13%; to `FC1CCNC(C2COC(c3ccccc3)(c3ccccc3)O2)C1` (racemic; form 1), 19%; to `FC1CCNC(C2COC(c3ccccc3)(c3ccccc3)O2)C1` (racemic; form 2) [listing 2 of 2 here], 19%.

Another assay concerns the target Sigma non-opioid intracellular receptor 1 (Cavia porcellus, UniProt Q60492). Put plainly: Displacement of [3H](+)-pentazocine from sigma1 opioid receptor from guinea pig brain cortex after 150 mins by scintillation counting.
Conditions: not given
Take `FC1(F)CCNC(C2COC(c3ccccc3)(c3ccccc3)O2)C1` (racemic): the Ki came to 810 nM.
Same read-out and setting: to `OC1CCNC(C2COC(c3ccccc3)(c3ccccc3)O2)C1` (racemic) belongs 971 nM.

The target in another assay is Sigma non-opioid intracellular receptor 1 (Cavia porcellus) (UniProt Q60492). Particulars: at 1 µM.
Sigma non-opioid intracellular receptor 1 (Cavia porcellus), sequence (Q60492 whole entry): as above
Description: Displacement of [3H](+)-pentazocine from sigma1 opioid receptor from guinea pig brain cortex at 1 uM after 150 mins by scintillation counting
Molecule `FC1(F)CCNC(C2COC(c3ccccc3)(c3ccccc3)O2)C1` (racemic) returned an inhibition of 0%.
Still for that read-out and setting: the figure for `O=C1CCNC(C2COC(c3ccccc3)(c3ccccc3)O2)C1` (racemic) is 0%; for `FC1CCNC(C2COC(c3ccccc3)(c3ccccc3)O2)C1` (racemic; form 1) it is 5%.
On the same count and under the same terms, to `FC1CCNC(C2COC(c3ccccc3)(c3ccccc3)O2)C1` (racemic; form 2) [listing 2 of 2 here] belongs 5%.

The species named for the next assay is Sus scrofa. Particulars: at 1 µM.
Description: Displacement of [3H]-(+)-MK801 from PCP binding site of NMDA receptor from pig brain cortex at 1 uM after 150 mins by scintillation counting
In turn, `FC1(F)CCNC(C2COC(c3ccccc3)(c3ccccc3)O2)C1` (racemic) yielded an inhibition of 58%.
Same read-out and setting: the figure for `FC1CCNC(C2COC(c3ccccc3)(c3ccccc3)O2)C1` (racemic; form 1) is 0%.
